# Molecular target: YES1 kinase (Homo sapiens, UniProt P07947)
# Assay: YES1 kinase inhibition, ADP Glo assay (Promega)
# Type: biochemical
# Details: compound 10 nM; read-out: YES1 enzyme, % inhibition, 10 nM
# Method: To evaluate the inhibitory activity against YES1 kinase of the compound according to the present invention, ADP Glo assay (Promega) was used, and the following method was performed with reference to the Promega kinase enzyme system protocol. To proceed with the experiment, buffers A-F and compound dilution plates were required.
# To prepare A.4X reaction buffer, 800 μl of 5X reaction buffer and 200 μl of distilled water were used. To prepare B.4X kinase buffer, 996.6 μl of A.4X reaction buffer, 2 μl of 0.1M DTT, and 3.2 μl of 2.5M MnCl2 were added and mixed. To prepare C.1X kinase buffer (containing 5% DMSO) used for compound dilution, 250 μl of B.4X kinase buffer, 700 μl of distilled water, and 50 μl of DMSO were added, so that the final DMSO concentration became 5%. Then, 10 mM compounds were diluted 100-fold to prepare 100 μM solutions, and then D.5X inhibitor solution was prepared so that the compound concentration became 5 uM. Using a 96-well plate, 5 μM compounds were 3-fold diluted using C.1X kinase buffer (containing 5% DMSO) to prepare compound plates with concentrations ranging from 0.25 μM to 5 μM. The resulting plates were stored at room temperature. To prepare E. 2.5X ATP/substrate mixture, 50 μl of B.4X kinase buffer, 50 μl of […], and 100 μl of substrate were mixed. To prepare F YES1 kinase enzyme solution, 35 μl of B.4X kinase buffer, 0.4 μl of YES1 enzyme, and 104.6 μl of distilled water were used. Once the diluted compound plates, ATP/substrate mixture, and YES1 kinase solution were all prepared, 3 μL each was transferred from the diluted compound plate to a luciferase 96-well white plate (Since the total volume of the ATP/substrate and YES1 kinase solution that reacts with the compound is 15 μL, the compounds were diluted 5-fold, making the final compound concentration 0.05 μM-1 μM). Then, 6 μL of F. YES1 Kinase Enzyme Solution was transferred to each well, pipetted 10 times to mix, and incubated at room temperature in a shaker for 10 minutes. Next, 6 μL of E. 2.5X ATP/Substrate Mixture was transferred to each well, pipetted 10 times to mix, and centrifuged at 12,000 rpm for 5 minutes. The plate was then incubated in a shaker at room temperature for 40 minutes. After that, 15 μL of ADP-Glo Reagent, dissolved at room temperature, was added to each well, pipetted 10 times, and incubated in a shaker at room temperature for 40 minutes. Finally, 30 μL of Kinase Detection Reagent, dissolved at room temperature, was added, pipetted 10 times, incubated in a shaker at room temperature for 30 minutes. Luminescence was measured using a luminescence plate reader. Then, the background value was subtracted from all measured values, and the YES1 kinase activity at compound concentrations of 1 nM, 10 nM, and 100 nM was calculated. The measured values were calculated as percentages using the average value of the negative control. Graphs were drawn using GraphPad Prism, and the enzyme activity was calculated as a percentage of YES1 kinase inhibition at compound concentrations of 1 nM, 10 nM, and 100 nM. IC50 values were obtained using Microsoft Excel.
# Sequence of YES1 kinase (P07947 whole entry): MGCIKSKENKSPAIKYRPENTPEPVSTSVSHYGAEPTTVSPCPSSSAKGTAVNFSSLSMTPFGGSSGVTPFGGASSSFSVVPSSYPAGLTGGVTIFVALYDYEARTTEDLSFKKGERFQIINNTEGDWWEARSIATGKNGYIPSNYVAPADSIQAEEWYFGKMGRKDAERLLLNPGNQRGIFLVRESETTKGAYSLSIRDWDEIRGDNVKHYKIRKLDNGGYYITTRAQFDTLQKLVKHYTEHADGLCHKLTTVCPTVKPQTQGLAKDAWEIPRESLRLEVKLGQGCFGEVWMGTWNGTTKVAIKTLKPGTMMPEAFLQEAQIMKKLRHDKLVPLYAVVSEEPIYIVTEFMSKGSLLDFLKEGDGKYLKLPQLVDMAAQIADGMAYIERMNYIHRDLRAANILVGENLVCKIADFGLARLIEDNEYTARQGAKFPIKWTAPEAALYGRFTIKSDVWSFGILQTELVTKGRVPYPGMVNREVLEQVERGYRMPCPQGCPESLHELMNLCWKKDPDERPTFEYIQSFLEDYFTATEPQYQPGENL
row,inhibition at 0.01 µM,Structure (SMILES)
1,51%,"COc1cc(-c2cc(N3CC[C@@H](N(C)C)[C@H](F)C3)n3ncnc(N)c23)ccc1NC(=O)OC(C)(C)C [Example 32, tert-butyl (4-(4-amino-7-((3R,4R)-4-(dimethylamino)-3-fluoropiperidin-1-yl)pyrrolo[2,1-f][1,2,4]triazin-5-yl)-2-methoxyphenyl)carbamate]"
2,37%,"COc1cc(-c2cc(N3C[C@H]4CN(C)C[C@H]4C3)n3ncnc(N)c23)ccc1NC(=O)OC(C)(C)C [Example 34, tert-butyl (4-(4-amino-7-((3aR,6aS)-5-methylhexahydropyrrolo[3,4-c]pyrrol-2(1H)-yl)pyrrolo[2,1-f][1,2,4]triazin-5-yl)-2-methoxyphenyl)carbamate]"

# Same assay, conditions: compound 100 nM; read-out: YES1 enzyme, % inhibition, 100 nM
row,inhibition at 0.1 µM,Structure (SMILES)
1,82%,"COc1cc(-c2cc(N3CC[C@@H](N(C)C)[C@H](F)C3)n3ncnc(N)c23)ccc1NC(=O)OC(C)(C)C [Example 32, tert-butyl (4-(4-amino-7-((3R,4R)-4-(dimethylamino)-3-fluoropiperidin-1-yl)pyrrolo[2,1-f][1,2,4]triazin-5-yl)-2-methoxyphenyl)carbamate]"
2,74%,"COc1cc(-c2cc(N3C[C@H]4CN(C)C[C@H]4C3)n3ncnc(N)c23)ccc1NC(=O)OC(C)(C)C [Example 34, tert-butyl (4-(4-amino-7-((3aR,6aS)-5-methylhexahydropyrrolo[3,4-c]pyrrol-2(1H)-yl)pyrrolo[2,1-f][1,2,4]triazin-5-yl)-2-methoxyphenyl)carbamate]"

# Test system: KYSE-70 esophageal cancer cell line
# Assay: Cell growth inhibition of KYSE-70 (Sulforhodamine B)
# Type: cell-based
# Details: Homo sapiens; KYSE-70, 72 hours; read-out: KYSE70 GI50
# Method: The cell line according to the present invention was selected as KYSE-70, an esophageal cancer cell line in which YES1 is amplified. The evaluation of cell growth inhibition was performed as follows.
# KYSE-70 was cultured in RPMI-1640 (Capricorn) supplemented with 10% FBS (Cellgro). The cells were seeded 24 hours prior to compound treatment, into three 96-well F-bottom clear plates (Greiner), with 7,500 cells per well in 180 μL of medium. The 10 mM compound was diluted 100-fold in medium to prepare a 100 μM compound, which was then placed into a 96-well plate and further 3-fold diluted in medium to prepare a compound plate with concentrations ranging from 0.046 μM to 100 μM. 20 μL of each compound from the drug plate was added to the cell-seeded plates to achieve final concentrations of 0.0046 μM to 10 μM. At the same time, 50 μL of 33% trichloroacetic acid was injected into one plate and the plate was fixed by incubating at 4° C. This was referred to as the Do plate. Viable cells were measured 72 hours after compound treatment by injecting 50 μL of 33% trichloroacetic acid and incubating at 4° C. for more than 1 hour to fix the cells. This was referred to as the D3 plate. After the Do plate and D3 plates were washed 5 times with sterile water, 100 μL of 0.04% Sulforhodamine B solution in 1% acetic acid was added and reacted for 1 hour to stain the cells. After staining, the plates were washed 4 times with 1% acetic acid solution and completely dried. Then, the Sulforhodamine B bound to cellular proteins was completely dissolved with 10 mM Tris base solution (pH 10.5). The absorbance was measured at a wavelength of 510 nm using a microplate reader (TECAN, sunrise microplate reader). The analysis was performed using GraphPad Prism. The average absorbance of the Do plate was set to 0%, and the average absorbance of the negative control of the D3 plate was set to 100%, from which a graph was drawn and the GI50 values were calculated. Each test was performed twice.
row,GI50,Structure (SMILES)
1,100 to 1000 nM,"CNC(=O)C1CCN(c2cc(-c3ccc(NC(=O)OC(C)(C)C)c(OC)c3)c3c(N)ncnn23)CC1 [Example 95, tert-butyl (4-(4-amino-7-(4-(methylcarbamoyl)piperidin-1-yl)pyrrolo[2,1-f][1,2,4]triazin-5-yl)-2-methoxyphenyl)carbamate]"
2,≤ 100 nM,"COc1cc(-c2c(Cl)c(N3CCC(N(C)C)CC3)n3ncnc(N)c23)ccc1NC(=O)OC(C)(C)C [Example 124, tert-butyl (4-(4-amino-6-chloro-7-(4-(dimethylamino)piperidin-1-yl)pyrrolo[2,1-f][1,2,4]triazin-5-yl)-2-methoxyphenyl)carbamate]"
3,100 to 1000 nM,"COc1cc(-c2c(I)c(N3CCC(N)CC3)n3ncnc(N)c23)ccc1NC(=O)OC(C)(C)C [Example 126, tert-butyl (4-(4-amino-7-(4-aminopiperidin-1-yl)-6-iodopyrrolo[2,1-f][1,2,4]triazin-5-yl)-2-methoxyphenyl)carbamate]"
4,≤ 100 nM,"CNCCC1CCN(c2c(F)c(-c3ccc(NC(=O)OC(C)(C)C)c(OC)c3)c3c(N)ncnn23)CC1 [Example 131, tert-butyl (4-(4-amino-6-fluoro-7-(4-(2-(methylamino)ethyl)piperidin-1-yl)pyrrolo[2,1-f][1,2,4]triazin-5-yl)-2-methoxyphenyl)carbamate]"
5,> 10000 nM,"COc1cc(-c2cc(N[C@@H]3CC[C@H](CN)C3)n3ncnc(N)c23)ccc1NC(=O)OC(C)(C)C [Example 111, tert-butyl (4-(4-amino-7-(((1R,3S)-3-(aminomethyl)cyclopentyl)amino)pyrrolo[2,1-f][1,2,4]triazin-5-yl)-2-methoxyphenyl)carbamate]"
6,100 to 1000 nM,"COc1cc(-c2cc(NC[C@H]3CC[C@@H](N)C3)n3ncnc(N)c23)ccc1NC(=O)OC(C)(C)C [Example 110, tert-butyl (4-(4-amino-7-((((1S,3R)-3-aminocyclopentyl)methyl)amino)pyrrolo[2,1-f][1,2,4]triazin-5-yl)-2-methoxyphenyl)carbamate]"
7,≤ 100 nM,"COc1cc(-c2cc(N3CCC(N(C)C)CC3)n3ccnc(N)c23)ccc1NC(=O)OC(C)(C)C [Example 134, tert-butyl (4-(1-amino-6-(4-(dimethylamino)piperidin-1-yl)pyrrolo[1,2-a]pyrazin-8-yl)-2-methoxyphenyl)carbamate]"

# Second part, the compound before the results:
row,Structure (SMILES),GI50
1,"CNC1CCN(c2c(C)c(-c3ccc(NC(=O)OC(C)(C)C)c(OC)c3)c3c(N)ncnn23)CC1 [Example 75, tert-butyl (4-(4-amino-6-methyl-7-(4-(methylamino)piperidin-1-yl)pyrrolo[2,1-f][1,2,4]triazin-5-yl)-2-methoxyphenyl)carbamate]",≤ 100 nM
2,"COc1cc(-c2c(C)c(N3CCC(N(C)C)CC3)n3ncnc(N)c23)ccc1NC(=O)OC(C)(C)CF [Example 62, 1-fluoro-2-methylpropan-2-yl (4-(4-amino-7-(4-(dimethylamino)piperidin-1-yl)-6-methylpyrrolo[2,1-f][1,2,4]triazin-5-yl)-2-methoxyphenyl)carbamate]",≤ 100 nM
3,"CNCCC1CCN(c2c(C)c(-c3ccc(NC(=O)OC(C)(C)CF)c(OC)c3)c3c(N)ncnn23)CC1 [Example 63, 1-fluoro-2-methylpropan-2-yl (4-(4-amino-6-methyl-7-(4-(2-(methylamino)ethyl)piperidin-1-yl)pyrrolo[2,1-f][1,2,4]triazin-5-yl)-2-methoxyphenyl)carbamate]",≤ 100 nM
4,"COc1cc(-c2cc(N3CCC(N)C4(CC4)C3)n3ncnc(N)c23)ccc1NC(=O)OC(C)(C)C (stereo not drawn) [Example 80, tert-butyl (4-(4-amino-7-(8-amino-5-azaspiro[2.5]octan-5-yl)pyrrolo[2,1-f][1,2,4]triazin-5-yl)-2-methoxyphenyl)carbamate]",100 to 1000 nM
5,"COc1cc(-c2cc(N3CCC(C(C)N)CC3)n3ncnc(N)c23)ccc1NC(=O)OC(C)(C)C (stereo not drawn) [Example 81, tert-butyl (4-(4-amino-7-(4-(1-aminoethyl)piperidin-1-yl)pyrrolo[2,1-f][1,2,4]triazin-5-yl)-2-methoxyphenyl)carbamate]",100 to 1000 nM
6,"COc1cc(-c2c(C)c(N3CCC(N)CC3)n3ncnc(N)c23)ccc1NC(=O)OC(C)(C)CF [Example 60, 1-fluoro-2-methylpropan-2-yl (4-(4-amino-7-(4-aminopiperidin-1-yl)-6-methylpyrrolo[2,1-f][1,2,4]triazin-5-yl)-2-methoxyphenyl)carbamate]",≤ 100 nM
7,"COc1cc(-c2cc(CCN3CCC(N(C)C)CC3)n3ncnc(N)c23)ccc1NC(=O)OC(C)(C)CF [Example 69, 1-fluoro-2-methylpropan-2-yl (4-(4-amino-7-(2-(4-(dimethylamino)piperidin-1-yl)ethyl)pyrrolo[2,1-f][1,2,4]triazin-5-yl)-2-methoxyphenyl)carbamate]",≤ 100 nM
8,"COc1cc(-c2cc(N3CCC(N)CC3)n3ncnc(N)c23)ccc1NC(=O)OC1(C)CC1 [Example 71, 1-methylcyclopropyl (4-(4-amino-7-(4-aminopiperidin-1-yl)pyrrolo[2,1-f][1,2,4]triazin-5-yl)-2-methoxyphenyl)carbamate]",≤ 100 nM
9,"COc1cc(-c2cc(CCN3CCC(N)CC3)n3ncnc(N)c23)ccc1NC(=O)OC(C)(C)CF [Example 68, 1-fluoro-2-methylpropan-2-yl (4-(4-amino-7-(2-(4-aminopiperidin-1-yl)ethyl)pyrrolo[2,1-f][1,2,4]triazin-5-yl)-2-methoxyphenyl)carbamate]",≤ 100 nM
10,"CNC1CCN(CCc2cc(-c3ccc(NC(=O)OC(C)(C)CF)c(OC)c3)c3c(N)ncnn23)CC1 [Example 67, 1-fluoro-2-methylpropan-2-yl (4-(4-amino-7-(2-(4-(methylamino)piperidin-1-yl)ethyl)pyrrolo[2,1-f][1,2,4]triazin-5-yl)-2-methoxyphenyl)carbamate]",100 to 1000 nM

# From US20260297095A1, “NOVEL PYRROLOTRIAZINE DERIVATIVE AND USE THEREOF” (Pelemed Co., Ltd., priority 2024, published 2026)
